# System: SARS-CoV-2 variants: Ancestral (lineage A), Alpha (B.1.1.7), Beta (B.1.351), Gamma (P.1), Delta (B.1.617.2), Omicron (B.1.1.529)
# Type: cell-based
structure (smiles),measurement,value
"CCCCCOc1cccc(/C=C/C23N=C(O)CCN2c2ccccc2C3(C)C)c1 (stereo not shown) [MolPort-005-980-235, 10,10-dimethyl-10a-[(1E)-2-[3-(pentyloxy)phenyl]ethenyl]-3H,4H,10H,10aH-pyrimido[1,2-a]indol-2-ol]",antiviral activity against SARS-CoV-2 variants,"had antiviral activity against all verified SARS-CoV-2 variants, including Omicron, in a dose-dependent manner"
